According to patent EP0339496A2, “Aminoguanidine derivatives” (ONO PHARMACEUTICAL CO., LTD., priority 1988, dated 1989):

System: Maillard reaction
Assay: Inhibitory effect on Maillard reaction in vitro (bovine serum albumin + glucose, fluorescence)
Format: biochemical
Details: test compound 6 mM; bovine serum albumin 100 mg/ml, glucose 200 mM, 0.5 M phosphate buffer pH 7.38, one week at 37°C; fluorescence ex 360 nm / em 450 nm
Method: In order to evaluate the inhibitory effect on Maillard reaction in vitro, of the compounds in the present invention, the measurement was carried out under conditions described below. Bovine serum albumin (100 mg/ml), glucose (200 mM) and test compound (6 mM, 30 mM in example 2 and 2(a)) were dissolved in 0.5 M phosphatic buffer solution (pH 7.38), and the mixture was incubated for a week at 37°C. After incubation, the incubated medium was diluted 100 times with the same phosphatic buffer solution, and the fluorescence spectrum was measured at the excitation maximum of 360nm and the emission maximum of 450 nm. Inhibition percentage of the test compounds was calculated by the following equation: [table]

Going from `N=C(NN)NCc1cccc2ccccc12` [1 (h), 1-amino-3-(1-naphtylmethyl) guanidine hydroiodide] to `I.N=C(NN)NCc1ccccc1` [Example 1, 1-amino-3-benzylguanidine hydroiodide], the “Inhibitory effect (%)” value rises from 51% to 63%.

Going from `I.N=C(NN)NCCc1ccccc1` [Example 1 (a), 1-amino-3-phenethylguanidine hydroiodide] to `CN(N)C(=N)NCc1ccccc1.I` [1 (r), 1-amino-1-methyl-3-benzylguanidine hydroiodide], the “Inhibitory effect (%)” value falls from 72% to 36%.

Compared with `I.N=C(NN)NCc1ccc(F)cc1` [1 (e), 1-amino-3-(4-fluorobenzyl) guanidine hydroiodide], `COc1ccc(CNC(=N)NN)cc1.I` [1 (f), 1-amino-3-(4-methoxybenzyl) guanidine hydroiodide] is higher in “Inhibitory effect (%)” value: 43% for the first, 54% for the second.

Going from `CN(C(=N)NN)c1ccccc1.I` [1 (o), 1-amino-3-methyl-3-phenyl guanidine hydroiodide] to `N=C(N)N(N)CCCc1ccccc1` [2 (b), 1-amino-1-(3-phenylpropyl) guanidine], the “Inhibitory effect (%)” value falls from 54% to 50%.

Going from `CCCCN(CCCC)C(=N)NN` [1 (g), 1-amino-3,3-n-butylguanidine hydroiodide] to `Cl.N=C(NN)N1CCCC1` [1 (u), 1-pyrrolidinecarbohydrazide imide hydrochloride], the “Inhibitory effect (%)” value rises from 34% to 43%.

Compared with `I.N=C(NN)NCc1cccc([N+](=O)[O-])c1` [1 (i), 1-amino-3-(3-nitrobenzyl) guanidine hydroiodide], `Cl.N=C(NN)N1CCOCC1` [1 (v), 4-morpholinecarbohydrazide imide hydrochloride] is lower in “Inhibitory effect (%)” value: 57% for the first, 36% for the second.

In the case of `N=C(N)N(N)CC1CCCC1` [2 (c), 1-amino-1-cyclopenthylmethyl guanidine], the “Inhibitory effect (%)” value is reported as 56%.

Same assay, conditions: test compound 30 mM (example 2 and 2(a)); bovine serum albumin 100 mg/ml, glucose 200 mM, 0.5 M phosphate buffer pH 7.38, one week at 37°C; fluorescence ex 360 nm / em 450 nm

Compared with `N=C(N)N(N)Cc1ccccc1` [Example 2 (a), 1-amino-1-benzylguanidine], `N=C(N)N(N)CCc1ccccc1` [Example 2, 1-Amino-1-phenethylguanidine] is higher in “Inhibitory effect (%)” value: 50% for the first, 71% for the second.

System: Maillard reaction
Assay: not given
Details: Brownlee et al., Science, 232, 1629 (1986); cited from earlier work

In the case of `N=C(N)NN` [aminoguanidine], the “inhibits Maillard reaction in vitro” value is listed as “inhibits”.

System: advanced glycosylation end products in arterial wall connective tissue protein
Assay: not given
Details: administered to diabetic rats; Brownlee et al., Science, 232, 1629 (1986); cited from earlier work

For `N=C(N)NN` [aminoguanidine], the “inhibits diabetes-induced accumulation of advanced glycosylation end products in arterial wall connective tissue protein” value is listed as “inhibits”.
